Measured values from article PMC3914206.

What was measured:
panel of 442 kinases [1] = target: T1, panel of 442 kinases (Homo sapiens, UniProt Q8TD08); type: binding; details: Compound Concentration 10 µM
T1 construct: purchased KINOMEscan
T1 sequence (Q8TD08 1-544): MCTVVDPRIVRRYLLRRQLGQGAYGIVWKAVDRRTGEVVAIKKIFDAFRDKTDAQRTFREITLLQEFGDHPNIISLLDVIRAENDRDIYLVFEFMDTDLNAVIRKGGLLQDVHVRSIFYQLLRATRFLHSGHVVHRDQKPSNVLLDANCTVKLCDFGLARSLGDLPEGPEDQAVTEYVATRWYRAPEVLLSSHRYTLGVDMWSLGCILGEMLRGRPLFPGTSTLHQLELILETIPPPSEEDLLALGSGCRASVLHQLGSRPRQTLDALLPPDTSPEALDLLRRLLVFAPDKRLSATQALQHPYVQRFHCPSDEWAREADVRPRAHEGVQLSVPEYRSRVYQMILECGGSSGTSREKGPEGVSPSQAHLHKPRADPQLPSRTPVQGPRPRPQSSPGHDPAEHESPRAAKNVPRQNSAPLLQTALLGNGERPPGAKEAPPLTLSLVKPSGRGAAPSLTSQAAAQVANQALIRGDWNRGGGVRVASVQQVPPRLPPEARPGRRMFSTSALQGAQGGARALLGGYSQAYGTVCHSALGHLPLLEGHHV
Source text: (§1) We assessed the selectivity of members of this scaffold using the KINOMEscan methodology across a near comprehensive panel of 442 kinases [[18,27]].

panel of 442 kinases [2] = target: T2, panel of 442 kinases (Homo sapiens, UniProt Q7L7X3); type: binding; details: kinase TAOK1; compound concentration 10 µM
T2 construct: purchased KINOMEscan
T2 sequence (Q7L7X3 1-1001): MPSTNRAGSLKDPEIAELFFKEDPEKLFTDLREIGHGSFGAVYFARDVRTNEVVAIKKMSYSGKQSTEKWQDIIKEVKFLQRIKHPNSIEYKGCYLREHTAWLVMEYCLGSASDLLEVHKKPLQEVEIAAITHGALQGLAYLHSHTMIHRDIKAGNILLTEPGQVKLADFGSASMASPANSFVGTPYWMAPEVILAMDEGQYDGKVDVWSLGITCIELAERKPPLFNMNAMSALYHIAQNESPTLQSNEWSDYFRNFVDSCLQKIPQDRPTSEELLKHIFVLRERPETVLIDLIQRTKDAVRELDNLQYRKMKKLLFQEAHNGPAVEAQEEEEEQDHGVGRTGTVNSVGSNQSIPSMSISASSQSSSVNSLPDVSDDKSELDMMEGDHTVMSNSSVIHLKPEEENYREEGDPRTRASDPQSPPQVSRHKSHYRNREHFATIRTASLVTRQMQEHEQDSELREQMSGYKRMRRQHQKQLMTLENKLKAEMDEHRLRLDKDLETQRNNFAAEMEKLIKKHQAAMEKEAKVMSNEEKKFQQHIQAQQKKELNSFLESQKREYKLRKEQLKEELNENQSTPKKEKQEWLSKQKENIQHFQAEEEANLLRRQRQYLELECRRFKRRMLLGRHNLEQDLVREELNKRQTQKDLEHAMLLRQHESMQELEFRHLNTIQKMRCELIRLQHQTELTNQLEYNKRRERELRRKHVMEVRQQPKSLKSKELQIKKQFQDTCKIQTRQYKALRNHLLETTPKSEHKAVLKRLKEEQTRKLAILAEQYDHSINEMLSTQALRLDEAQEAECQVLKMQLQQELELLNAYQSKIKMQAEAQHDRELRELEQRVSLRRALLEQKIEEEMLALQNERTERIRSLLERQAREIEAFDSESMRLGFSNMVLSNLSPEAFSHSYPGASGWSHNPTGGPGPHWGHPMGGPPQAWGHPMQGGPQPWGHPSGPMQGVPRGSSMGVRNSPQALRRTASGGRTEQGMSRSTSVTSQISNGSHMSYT
Source text: as §1

COc1cc(C(=O)N2CCC(N3CCN(C)CC3)CC2)ccc1Nc1ncc2c(n1)N(C)c1ccccc1C(=O)N2C [15 (LRRK2-IN-1)]
KINOMEscan: ERK8 (panel of 442 kinases [1]): 100
% Ctrl, TAOK1 (panel of 442 kinases [2]): 28 % Ctrl

COc1cc(C(=O)N2CCC(N3CCN(C)CC3)CC2)ccc1Nc1ncc2c(n1)N(C1CCCC1)c1ccccc1C(=O)N2C [Compound 25, 11-cyclopentyl-2-((2-methoxy-4-(4-(4-methylpiperazin-1-yl)piperidine-1-carbonyl)phenyl)amino)-5-methyl-5H-benzo[e]pyrimido[5,4-b][1,4]diazepin-6(11H)-one]
KINOMEscan: ERK8 (panel of 442 kinases [1]): 99
% Ctrl, TAOK1 (panel of 442 kinases [2]): 51 % Ctrl

CCOc1cc(C(=O)N2CCC(N3CCN(C)CC3)CC2)ccc1Nc1ncc2c(n1)N(C1CCCC1)c1ccccc1C(=O)N2C [Compound 26]
KINOMEscan: ERK8 (panel of 442 kinases [1]): 100
% Ctrl, TAOK1 (panel of 442 kinases [2]): 79 % Ctrl
